Measured values as given in patent publication US20200181104A1, “SSAO INHIBITORS AND USES THEREOF” (METACRINE, INC., priority 2018, published 2020).
Structures can show the parent of a compound that is named as a salt.

molecular target: T1, Recombinant Human SSAO/VAP-1/AOC3 (Homo sapiens, UniProt Q16853); test: Human Semicarbazide-Sensitive Amine Oxidase (SSAO) Assay; format: biochemical; details: recombinant enzyme, 30 minutes preincubation at 37° C., benzylamine substrate, Amplex Ultra Red/HRP fluorescence
T1 construct: purchased R&D systems 3957-AO
T1 sequence (Q16853 1-763): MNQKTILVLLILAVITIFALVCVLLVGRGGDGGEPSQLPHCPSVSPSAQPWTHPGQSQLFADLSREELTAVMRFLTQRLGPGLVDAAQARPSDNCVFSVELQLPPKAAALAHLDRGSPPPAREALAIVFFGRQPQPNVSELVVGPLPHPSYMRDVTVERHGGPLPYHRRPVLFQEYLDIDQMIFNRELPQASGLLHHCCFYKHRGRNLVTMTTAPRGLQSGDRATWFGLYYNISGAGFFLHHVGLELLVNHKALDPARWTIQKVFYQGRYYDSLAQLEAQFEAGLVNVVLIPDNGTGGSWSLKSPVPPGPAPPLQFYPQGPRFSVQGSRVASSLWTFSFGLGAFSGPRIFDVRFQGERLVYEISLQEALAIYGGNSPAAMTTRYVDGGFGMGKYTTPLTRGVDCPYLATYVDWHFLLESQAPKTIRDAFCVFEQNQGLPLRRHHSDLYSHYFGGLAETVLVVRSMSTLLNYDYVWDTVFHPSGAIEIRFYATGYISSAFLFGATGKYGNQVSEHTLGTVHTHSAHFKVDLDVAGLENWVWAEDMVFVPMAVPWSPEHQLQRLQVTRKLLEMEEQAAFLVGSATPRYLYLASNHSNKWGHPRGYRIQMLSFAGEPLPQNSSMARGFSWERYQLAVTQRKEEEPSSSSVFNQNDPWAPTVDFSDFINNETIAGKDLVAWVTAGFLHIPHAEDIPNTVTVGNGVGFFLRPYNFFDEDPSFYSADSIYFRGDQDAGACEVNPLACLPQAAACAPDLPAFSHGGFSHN
Method: Compounds were dissolved in DMSO to provide a Concentration Response Curve (CRC; at 500 times the final concentration) over a range of 6-10 dilutions.
Recombinant Human SSAO/VAP-1/AOC3 (R&D systems; Catalog #3957-AO) was used to screen compound potency in vitro, according to previously described methods (J Pharmacol Exp Ther. 2013 November; 347(2):365-74). SSAO enzyme was suspended in 50 mM HEPES buffer to a working concentration of 2.5 μg/ml and 40 μL of this enzyme mixture was then added to each well of a F16 Black Maxisorp 96 well Plate (Nunc, Catalog #475515). Ten microliters of each test compound (at 5 times the final concentration) were added to each well, resulting in a final well volume of 50 μL of the enzyme and inhibitor mixture. The compounds were preincubated with the enzyme for 30 minutes at 37° C., prior to the addition of a 40 μL volume of Amplex Ultra Red (125 uM AUR; Molecular Probes, Catalog # A36006)/Horseradish peroxidase (2.5 U/ml HRP; Sigma-Aldrich Catalog # P8375) oxidase detection reagent containing cytochrome C ([…]; Sigma-Aldrich Catalog # C7752). Cytochrome C was included in the AUR/HRP detection mixture to reduce the background fluorescence that can occur via the spontaneous redox reaction between AUR and HRP. The SSAO enzyme reaction was then initiated by adding 10 μL of the SSAO substrate, benzylamine (Sigma-Aldrich Catalog # B5136), and SSAO activity was measured in kinetic mode over a 30-120 minute sampling period (excit. 544 nm; emit 590 nm; cut off 570 nm; medium gain) to obtain IC50 values for enzyme activity in each treatment well.

IC50, ≤ 0.01 µM:
CC(C)(C#N)CNC(=O)C12CCC(c3ccc(OC/C(=C/F)CN)cc3)(CC1)CC2 [Compound 2.103, (E)-4-(4-((2-(aminomethyl)-3-fluoroallyl)oxy)phenyl)-N-(2-cyano-2-methylpropyl)bicyclo[2.2.2] octane-1-carboxamide]
CC1(C)CC(NC(=O)C23CCC(c4ccc(OC/C(=C/F)CN)cc4)(CC2)CC3)C1 [Compound 2.136, (E)-4-(4-((2-(aminomethyl)-3-fluoroallyl)oxy)phenyl)-N-(3,3-dimethylcyclobutyl)bicyclo [2.2.2]octane-1-carboxamide]
CN(C)C(=O)CCNC(=O)C12CCC(c3ccc(OC/C(=C/F)CN)cc3)(CC1)CC2 [Compound 2.37, (E)-4-(4-((2-(aminomethyl)-3-fluoroallyl)oxy)phenyl)-N-(3-(dimethylamino)-3-oxopropyl)bicyclo[2.2.2]octane-1-carboxamide]
CC1(CNC(=O)C23CCC(c4ccc(OC/C(=C/F)CN)cc4)(CC2)CC3)CCOCC1 [Compound 2.36, (E)-4-(4-((2-(aminomethyl)-3-fluoroallyl)oxy)phenyl)-N-((4-methyltetrahydro-2H-pyran-4-yl)methyl)bicyclo[2.2.2]octane-1-carboxamide]
COc1ncccc1CNC(=O)C12CCC(c3ccc(OC/C(=C/F)CN)cc3)(CC1)CC2 [Compound 2.137, (E)-4-(4-((2-(aminomethyl)-3-fluoroallyl)oxy)phenyl)-N-((2-methoxypyridin-3-yl)methyl)bicyclo[2.2.2]octane-1-carboxamide]
NC/C(=C\F)COc1ccc(C23CCC(C(=O)NC4CCC5(CCOCC5)CC4)(CC2)CC3)cc1 [Compound 2.131, (E)-4-(4-((2-(aminomethyl)-3-fluoroallyl)oxy)phenyl)-N-(3-oxaspiro[5.5]undecan-9-yl)bicyclo[2.2.2]octane-1-carboxamide]
NC/C(=C\F)COc1ccc(C23CCC(C(=O)N(CCO)C4CC4)(CC2)CC3)cc1 [Compound 2.59, (E)-4-(4-((2-(aminomethyl)-3-fluoroallyl)oxy)phenyl)-N-cyclopropyl-N-(2-hydroxyethyl)bicyclo[2.2.2] octane-1-carboxamide]
Cc1cnc(CCNC(=O)C23CCC(c4ccc(OC/C(=C/F)CN)cc4)(CC2)CC3)o1 [Compound 2.45, (E)-4-(4-((2-(aminomethyl)-3-fluoroallyl)oxy)phenyl)-N-(2-(5-methyloxazol-2-yl)ethyl)bicyclo[2.2.2]octane-1-carboxamide]
CC1(C)CC(NC(=O)C23CCC(c4ccc(OC/C(=C/F)CN)cc4)(CC2)CC3)CC(C)(C)O1 [Compound 2.105, (E)-4-(4-((2-(aminomethyl)-3-fluoroallyl)oxy)phenyl)-N-(2,2,6,6-tetramethyltetrahydro-2H-pyran-4-yl)bicyclo[2.2.2]octane-1-carboxamide]
Cc1n[nH]c(C)c1CNC(=O)C12CCC(c3ccc(OC/C(=C/F)CN)cc3)(CC1)CC2 [Compound 2.81, (E)-4-(4-((2-(aminomethyl)-3-fluoroallyl)oxy)phenyl)-N-((3,5-dimethyl-1H-pyrazol-4-yl)methyl)bicyclo[2.2.2]octane-1-carboxamide]
CC(NC(=O)C12CCC(c3ccc(OC/C(=C/F)CN)cc3)(CC1)CC2)C1CCOCC1 (stereo not drawn) [Compound 2.19, (E)-4-(4-((2-(amino-methyl)-3-fluoroallyl)oxy)phenyl)-N-(1-(tetrahydro-2H-pyran-4-yl)ethyl)bicyclo[2.2.2] octane-1-carboxamide]
CC(C)(O)CCNC(=O)C12CCC(c3ccc(OC/C(=C/F)CN)cc3)(CC1)CC2 [Compound 2.89, (E)-4-(4-((2-(aminomethyl)-3-fluoroallyl)oxy)phenyl)-N-(3-hydroxy-3-methylbutyl)bicyclo[2.2.2] octane-1-carboxamide]
COCCOC1CN(C(=O)C23CCC(c4ccc(OC/C(=C/F)CN)cc4)(CC2)CC3)C1 [Compound 2.90, (E)-(4-(4-((2-(aminomethyl)-3-fluoroallyl)oxy)phenyl)bicyclo [2.2.2]octan-1-yl)(3-(2-methoxyethoxy)azetidin-1-yl)methanone]
NC/C(=C\F)COc1ccc(C23CCC(C(=O)NC4CCOC5(CCC5)C4)(CC2)CC3)cc1 (stereo not drawn) [Compound 2.154, (E)-4-(4-((2-(aminomethyl)-3-fluoroallyl)oxy)phenyl)-N-(5-oxaspiro[3.5]nonan-8-yl)bicyclo[2.2.2]octane-1-carboxamide]
NC/C(=C\F)COc1ccc(C23CCC(C(=O)NC4(CO)CC4)(CC2)CC3)cc1 [Compound 2.73, (E)-4-(4-((2-(aminomethyl)-3-fluoroallyl)oxy)phenyl)-N-(1-(hydroxymethyl)cyclopropyl) bicyclo[2.2.2]octane-1-carboxamide]
COCC1CN(C(=O)C23CCC(c4ccc(OC/C(=C/F)CN)cc4)(CC2)CC3)C1 [Compound 2.55, (E)-(4-(4-((2-(aminomethyl)-3-fluoroallyl)oxy)phenyl)bicyclo [2.2.2]octan-1-yl)(3-(methoxymethyl)azetidin-1-yl)methanone]
CNC(=O)[C@H]1C2CC3CC1C[C@](c1ccc(OC/C(=C/F)CN)cc1)(C3)C2 (single isomer, unassigned) [Compound 6.01, syn-5-(4-(((E)-2-(Aminomethyl)-3-fluoroallyl)oxy)phenyl)-N-methyladamantane-2-carboxamide Hydrochloride]
NC/C(=C\F)COc1ccc(C23CCC(C(=O)NCc4cnccn4)(CC2)CC3)cc1 [Compound 2.129, (E)-4-(4-((2-(aminomethyl)-3-fluoroallyl)oxy)phenyl)-N-(pyrazin-2-ylmethyl)bicyclo[2.2.2]octane-1-carboxamide]
NC/C(=C\F)COc1ccc(C23CCC(OCC(=O)N4CCOCC4)(CC2)CC3)cc1 [Compound 8.02, (E)-2-((4-(4-((2-(aminomethyl)-3-fluoroallyl)oxy)phenyl)bicyclo [2.2.2]octan-1-yl)oxy)-1-morpholinoethanone]
NC/C(=C\F)COc1ccc(C23CCC(C(=O)N4CC5CCC(C4)O5)(CC2)CC3)cc1 [Compound 2.71, (E)-(4-(4-((2-(aminomethyl)-3-fluoroallyl)oxy)phenyl)bicyclo [2.2.2]octan-1-yl)(8-oxa-3-azabicyclo[3.2.1]octan-3-yl)methanone]
CCOC1CC(NC(=O)C23CCC(c4ccc(OC/C(=C/F)CN)cc4)(CC2)CC3)C1 (stereo not drawn) [Compound 2.146, 4-(4-(((E)-2-(aminomethyl)-3-fluoroallyl)oxy)phenyl)-N-((1r,3r)-3-ethoxycyclobutyl)bicyclo[2.2.2] octane-1-carboxamide]
NC/C(=C\F)COc1ccc(C23CCC(C(=O)N4CCCCC4)(CC2)CC3)cc1 [Compound 2.24, (E)-(4-(4-((2-(amino-methyl)-3-fluoroallyl)oxy)phenyl)bicyclo [2.2.2]octan-1-yl)(piperidin-1-yl)methanone]
NC/C(=C\F)COc1ccc(C23CCC(C(=O)N4CC(O)(C(F)(F)F)C4)(CC2)CC3)cc1 [Compound 2.53, (E)-(4-(4-((2-(aminomethyl)-3-fluoroallyl)oxy)phenyl)bicyclo [2.2.2]octan-1-yl)(3-hydroxy-3-(trifluoromethyl)azetidin-1-yl)methanone]
NC/C(=C\F)COc1ccc(C23CCC(C(=O)NC4[C@H]5COC[C@H]45)(CC2)CC3)cc1 (stereo in doubt) [Compound 2.66, 4-(4-(((E)-2-(aminomethyl)-3-fluoroallyl)oxy)phenyl)-N-((1R,5S,6s)-3-oxabicyclo[3.1.0]hexan-6-yl)bicyclo[2.2.2]octane-1-carboxamide]
